Data reported in patent US7491849B2, “Oligoamine compounds and derivatives thereof for cancer therapy” (priority 2001, dated 2009).

Assays:
DuPro = experiment: MTT assay, tumor cell growth, DuPro; assay type: cell-based; settings: 6 days incubation, read-out: ID50 (μM) values for Human Tumor Cell Lines, DuPro
Method: Effect of Saturated Oligoamines on Human Prostate Tumor Cell Growth by the MTT assay. Saturated oligoamines inhibited prostate cancer cell growth in vitro. DU-145 cells were most sensitive and PC-3 cells were less sensitive to the effects of oligoamines. In general, ID50 values of less than 0.5 μM were obtained (Table 2). Even though the PC-3 cells were relatively more resistant to the oligoamines, at a 5 μM concentration the oligoamines reduced the cell number to less than 1% of the control on day 6 of incubation. Tissue cultures and the MTT assay were performed as follows.
Tissue Culture. Cells were seeded into 75 cm^2 culture flasks with 15 ml of Eagle's minimal essential medium supplemented with 10% fetal calf serum and nonessential amino acids. The flasks were incubated in a humidified 95% air/5% CO2 atmosphere. The cells were grown for at least 24 h to ensure that they are in the log phase of growth and then they were treated with the oligoamines. Cells were harvested by treatment for 5 min with STV (saline A, 0.05% trypsin, 0.02% EDTA) at 37° C. The flasks were rapped on the lab bench, pipetted several times and aliquots of cell suspension were withdrawn and counted using a Coulter particle counter that has been standardized for counting each cell line using a hemacytometer.
MTT Assay: Trypsinized cell suspensions were diluted to seed 80 μl suspensions containing 500 cells in each well of a 96 well Corning microtiter plate and incubated overnight at 37° C. in a humidified incubator in 5% CO2. 20 μl of appropriately diluted stock solution of each drug were added to the middle 8 columns of cell suspension in the microtiter plates. Each drug concentration was run in quadruplicate. Outer columns of the plates were used for buffer controls. Cells were incubated with the drug for 6 days at 37° C. in 5% CO2/H2O atmosphere. 25 μl of 5 mg/ml solution of 3-(4,5-dimethylthiazol-2-yl)-2,5-diphenyl tetrazolium bromide (MTT) were added to each well and incubated for 4 hours at 37° C. in 5% CO2/H2O incubator. Cells were lysed by incubating overnight with 100 μl lysis buffer (500 ml of the lysis buffer contains: 100 g lauryl sulfate (SDS), 250 ml of N,N-dimethylformamide, and 2 ml of glacial acetic acid, made up to volume with water; pH 4.8).
The color was monitored at room temperature at 570 nm in a E-max Precision Microplate Reader (Molecular Devices Corporation, Sunnyvale, Calif.) and data was analyzed using cell survival software supplied by Molecular Devices Corporation.

DuPro Cells = experiment: Cellular polyamine and oligoamine levels, DuPro cells (HPLC); assay type: cell-based
Method: Cellular Uptake of Oligoamines. There was considerable uptake of oligoamines by the cancer cell lines; see Table 3A (DuPro cells) and Table 3B (PC-3 cells). […] While not wishing to be limited by any particular theory of operation, the cytotoxicity is likely related to their strong aggregation effect on DNA.
Polyamine Analysis. An appropriate number of cells were taken from harvested samples and centrifuged at 1000 rpm at 4° C. for 5 min. The cells were washed twice with chilled Dulbecco's isotonic phosphate buffer (pH 7.4) by centrifugation at 1000 rpm at 4° C. and resuspended in the same buffer. After the final centrifugation, the supernatant was decanted, and […] of 8% sulfosalycilic acid was added to the cell pellet. The cells were sonicated, and the mixture was kept at 4° C. for at least 1 h. After centrifugation at 8000 g for 5 min, the supernatant was removed for analysis. An appropriate volume (50-100 μl) was fluorescence-labeled by derivatizing with dansyl chloride. Labeled polyamines were loaded onto a C-18 high-performance liquid chromatography column and separated by gradient elution with acetonitrile/water at 50° C. Peaks were detected and quantitated using Shimadzu HPLC fluorescence monitor coupled with a Spectra-Physics peak integrator. Because polyamine levels vary with environmental conditions, control cultures were sampled for each experiment.

[1] = Day 4 of Treatment, analog conc. 0.8 μM
[2] = Day 4 of Treatment, analog conc. 1.6 μM
[3] = Day 6 of Treatment, analog conc. 0.8 μM

SMILES | IC50 (DuPro) [µM] | Polyamine levels, Analog (cellular oligoamine level) (DuPro Cells; [1]) [nmoles/10^6 cells] | Polyamine levels, Put (DuPro Cells; [1]) [nmoles/10^6 cells] | Polyamine levels, Analog (cellular oligoamine level) (DuPro Cells; [2]) [nmoles/10^6 cells] | Polyamine levels, Put (DuPro Cells; [2]) [nmoles/10^6 cells] | Polyamine levels, Spd (DuPro Cells; [1]) [nmoles/10^6 cells] | Polyamine levels, Spm (DuPro Cells; [1]) [nmoles/10^6 cells] | Polyamine levels, Analog (cellular oligoamine level) (DuPro Cells; [3]) [nmoles/10^6 cells] | Polyamine levels, Put (DuPro Cells; [3]) [nmoles/10^6 cells]
CCNCCCCNCCCCNCCCCNCCCCNCCCCNCCCCNCCCCNCCCCNCCCCNCC.Cl.Cl.Cl.Cl.Cl.Cl.Cl.Cl.Cl.Cl [SL-11159] | 0.3 | 0.525 | 0.560 | 0.513 | 0.137 |  |  |  | 
CCNCCCCNCCCCNCCCCNCCCCNCCCCNCCCCNCCCCNCCCCNCCCCNCCCCNCCCCNCC.Cl.Cl.Cl.Cl.Cl.Cl.Cl.Cl.Cl.Cl.Cl.Cl [SL-11226] | 0.11 | 0.032 | 0.593 |  |  | 0.017 | 0.067 | 0.022 | 0.548
